Columns and labels:
Assay type in all cases: physicochemical
[1] = Preparation of ink and evaluation of solubility in low polar solvents (saturated solution, absorption maximum, εC); settings: for Absorption maximum wavelength: Decalin solution; for Solubility: Decalin, saturated solution, room temperature
[2] = as above; settings: for Solubility: saturated solution, room temperature
Protocol: Each of Illustrative Compounds 1 to 4 and Comparative Compounds 1, 2 and 4 was dissolved in each of the solvents of n-decane, tetradecane, ISOPAR M, and ISOPAR G, thereby preparing an ink. On that occasion, the solubility of each of the compounds in each of the solvents was measured in the following manner.
Each of the compounds (dyes) was added to each of the solvents until a dissolution residue was generated, and the contents were ultrasonically treated at a water temperature of 30° C. for 30 minutes. After standing at room temperature for 12 hours, the resultant was subjected to centrifugal filtration with a 0.1 μm filter by using an ultrasmall-sized centrifuge (centrifugal force: 5,200×g). Each of the obtained saturated solutions was diluted with an appropriate concentration, a solubility of each of the dyes was calculated from a relation with a previously measured absorption coefficient, and a product ∈C (cm^−1) of a molar absorption coefficient ∈ (L mole^−1 cm^−1) at the absorption maximum wavelength and a concentration C (mole L^−1) of the saturated solution was determined.

[3] = Light resistance test (residual rate of dye after 2 h irradiation, 400 W high pressure mercury vapor lamp); settings: 1 mg dye in 200 mL, 10 to 30° C.
Protocol: The light resistance of each of the compounds (dyes) was measured in the following manner.
1 mg of each of the compounds (dyes) was dissolved in 200 mL of each of the low polar solvents within a container, thereby preparing an ink. This ink was irradiated with light for 2 hours by using a photoreactor UVL-400HA (400 W high pressure mercury vapor lamp), manufactured by Riko Kagaku Sangyo K.K. During that interval, the container was cooled with a coolant, thereby keeping an internal temperature at from 10 to 30° C. A residual rate of the dye was determined by calculation according to the following expression, thereby evaluating the light resistance.
Residual rate=(Absorbance at the maximum absorption wavelength after irradiation)/(Absorbance at the maximum absorption wavelength before irradiation)

| Structure (SMILES) | Absorption maximum wavelength [1] [nm] | Solubility [1] [% by mass] | εC ([2]; Decalin solution) [cm⁻¹] | Absorption maximum wavelength ([2]; ISOPAR G solution) | εC ([2]; ISOPAR G solution) | Solubility ([2]; ISOPAR G) | Absorption maximum wavelength ([2]; ISOPAR M solution) | εC ([2]; ISOPAR M solution) | Solubility ([2]; ISOPAR M) | Absorption maximum wavelength ([2]; Tetradecane solution) | εC ([2]; Tetradecane solution) | Solubility ([2]; Tetradecane) | Absorption maximum wavelength ([2]; n-Decane solution) | εC (molar absorption coefficient at absorption maximum x concentration of saturated solution) ([2]; n-Decane solution) | Solubility ([2]; n-Decane) | Residual rate after light resistance test ([3]; n-Decane) [%] | Residual rate after light resistance test ([3]; ISOPAR G) [%] | Residual rate after light resistance test ([3]; ISOPAR M) [%] | Residual rate after light resistance test ([3]; Tetradecane) [%] |
| --- | --- | --- | --- | --- | --- | --- | --- | --- | --- | --- | --- | --- | --- | --- | --- | --- | --- | --- | --- |
| CNc1ccc(Nc2ccc(C)cc2)c2c1C(=O)c1ccccc1C2=O [Comparative Compound 1, C.I. Solvent Blue 11, reference compound] | 636 | 0.07 | 26 | 594 nm | 7 cm⁻¹ | 0.02 % by mass | 594 nm | 7 cm⁻¹ | 0.02 % by mass | 595 nm | 12 cm⁻¹ | 0.04 % by mass | Unmeasurable | Low | Low | – | – | – | – |
| CC(C)CNc1ccc(Nc2ccccc2)c2c1C(=O)c1ccccc1C2=O [Comparative Compound 2, reference compound] | – | – | – | – | – | – | – | – | – | – | – | – | 614 nm | 200 cm⁻¹ | 0.7 % by mass | – | – | – | – |
| CCCCN(CCCC)c1ccc(N=Nc2nc(C#N)c(C#N)n2CC#N)c(NC(C)=O)c1 [Comparative Compound 3, reference compound] | – | – | – | – | – | – | – | – | – | – | – | – | – | – | – | 45 | – | – | – |
| C=CCn1c(N=Nc2ccc(N(CCC)CCC)cc2NC(C)=O)nc(C#N)c1C#N [Comparative Compound 4, reference compound] | 520 | 0.01 | 7 | Unmeasurable | Low | Low | Unmeasurable | Low | Low | Unmeasurable | Low | Low | Unmeasurable | Low | Low | – | – | – | – |
| CCCCC(CC)CNc1ccc(NCC(CC)CCCC)c2c1C(=O)c1ccccc1C2=O (stereo not drawn) [Illustrative Compound 1] | 645 | 9.98 | 3400 | 649 nm | 1900 cm⁻¹ | 7.3 % by mass | 650 nm | 1200 cm⁻¹ | 4.2 % by mass | 651 nm | 1600 cm⁻¹ | 5.7 % by mass | 650 nm | 2000 cm⁻¹ | 6.6 % by mass | – | – | – | – |

The remaining lines, values ahead:

| Absorption maximum wavelength [1] [nm] | Solubility [1] [% by mass] | εC ([2]; Decalin solution) [cm⁻¹] | Absorption maximum wavelength ([2]; ISOPAR G solution) | εC ([2]; ISOPAR G solution) | Solubility ([2]; ISOPAR G) | Absorption maximum wavelength ([2]; ISOPAR M solution) | εC ([2]; ISOPAR M solution) | Solubility ([2]; ISOPAR M) | Absorption maximum wavelength ([2]; Tetradecane solution) | εC ([2]; Tetradecane solution) | Solubility ([2]; Tetradecane) | Absorption maximum wavelength ([2]; n-Decane solution) | εC (molar absorption coefficient at absorption maximum x concentration of saturated solution) ([2]; n-Decane solution) | Solubility ([2]; n-Decane) | Residual rate after light resistance test ([3]; n-Decane) [%] | Residual rate after light resistance test ([3]; ISOPAR G) [%] | Residual rate after light resistance test ([3]; ISOPAR M) [%] | Residual rate after light resistance test ([3]; Tetradecane) [%] | Structure (SMILES) |
| --- | --- | --- | --- | --- | --- | --- | --- | --- | --- | --- | --- | --- | --- | --- | --- | --- | --- | --- | --- |
| – | – | – | – | – | – | – | – | – | – | – | – | 668 nm | 1000 cm⁻¹ | 4.7 % by mass | – | – | – | – | CCCCC(CC)CNc1ccc(NCC(CC)CCCC)c2c1C(=O)c1ccc(C(=O)OCC)cc1C2=O (stereo not drawn) [Illustrative Compound 2] |
| 662 | 10.0 | 3100 | 667 nm | 2700 cm⁻¹ | 10.8 % by mass | 668 nm | 1400 cm⁻¹ | 5.1 % by mass | 668 nm | 1200 cm⁻¹ | 4.7 % by mass | 668 nm | 1900 cm⁻¹ | 7.5 % by mass | 78 | 88 | 77 | 94 | CCCCC(CC)CNc1ccc(NCC(CC)CCCC)c2c1C(=O)c1ccc(C(=O)OCC(C)C)cc1C2=O (stereo not drawn) [Illustrative Compound 3] |
| – | – | – | 666 nm | 1400 cm⁻¹ | 5.5 % by mass | 667 nm | 1200 cm⁻¹ | 4.5 % by mass | 668 nm | 1300 cm⁻¹ | 4.9 % by mass | 668 nm | 2400 cm⁻¹ | 9.5 % by mass | 97 | 95 | 99 | 93 | CCCCC(CC)CNc1ccc(NCC(CC)CCCC)c2c1C(=O)c1ccc(C(=O)OCCC)cc1C2=O (stereo not drawn) [Illustrative Compound 4] |

Source: patent US20130241815A1, “INK CONTAINING ANTHRAQUINONE BASED DYE, DYE USED IN THE INK, AND DISPLAY” (MITSUBISHI CHEMICAL CORPORATION, priority 2010, published 2013)
